Results on six compounds are retold here after ChEMBL document CHEMBL1131309, “Isoindol-1-one analogues of 4-(2'-methoxyphenyl)-1-[2'-[N-(2"-pyridyl)-p-iodobenzamido]ethyl]pipera zine (p-MPPI) as 5-HT1A receptor ligands” (J Med Chem, 1998).

This experiment addresses T1, 5-hydroxytryptamine receptor 1A (Rattus norvegicus, UniProt P19327).
T1 sequence (P19327 whole entry): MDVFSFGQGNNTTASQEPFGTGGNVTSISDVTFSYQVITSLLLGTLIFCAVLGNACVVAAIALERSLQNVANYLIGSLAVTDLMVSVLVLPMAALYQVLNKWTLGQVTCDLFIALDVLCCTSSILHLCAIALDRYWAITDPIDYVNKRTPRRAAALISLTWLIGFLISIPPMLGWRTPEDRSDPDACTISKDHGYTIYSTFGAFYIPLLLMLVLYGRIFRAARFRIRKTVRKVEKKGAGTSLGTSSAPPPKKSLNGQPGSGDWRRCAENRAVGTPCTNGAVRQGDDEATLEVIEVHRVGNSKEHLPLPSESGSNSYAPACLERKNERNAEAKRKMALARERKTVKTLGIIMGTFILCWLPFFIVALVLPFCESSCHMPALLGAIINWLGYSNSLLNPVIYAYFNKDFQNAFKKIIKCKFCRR
Description: In vitro binding affinity for 5-hydroxytryptamine 1A receptor in rat hippocampal membranes by [125I]-labeled agonist displacement.

For `COc1ccccc1N1CCN(CCN(C(=O)c2ccc(I)cc2)c2ccccn2)CC1`, affinity was put at a Ki of 200 pM.

In turn, `COc1ccccc1N1CCN(CCN2C(=O)c3cc(I)ccc3C2(O)c2ccccc2)CC1` (stereo unspecified) gave a Ki of 650 pM. With `COc1ccccc1N1CCN(CCN2C(=O)c3ccccc3C2c2ccccn2)CC1` (stereo unspecified) the figure was 6500 pM; with `COc1ccccc1N1CCN(CCN2C(=O)CCC2c2ccc(Br)cc2)CC1` (stereo unspecified), 1090 pM; with `COc1ccccc1N1CCN(CCN2C(=O)c3ccccc3C2c2ccccc2)CC1` (stereo unspecified), 500 pM.

Regarding `COc1ccccc1N1CCN(CCN2C(=O)c3cc(N)ccc3C2(O)c2ccccc2)CC1` (stereo unspecified), the inhibition constant Ki worked out at 1850 pM.
